Experimental data as given in BigSolDB 2.1.

CCOc1ccccc1C(N)=O
solubility (mole fraction) (in acetonitrile, 288.15 K): 0.00524
solubility (mole fraction) (in acetonitrile, 293.15 K): 0.0075
solubility (mole fraction) (in acetonitrile, 298.15 K): 0.0101
solubility (mole fraction) (in acetonitrile, 303.15 K): 0.0132
solubility (mole fraction) (in acetonitrile, 308.15 K): 0.0176
solubility (mole fraction) (in acetonitrile, 313.15 K): 0.0231
solubility (mole fraction) (in acetonitrile, 318.15 K): 0.0302
solubility (mole fraction) (in acetonitrile, 323.15 K): 0.0398
solubility (mole fraction) (in ethanol, 288.15 K): 0.011
solubility (mole fraction) (in ethanol, 293.15 K): 0.0137
solubility (mole fraction) (in ethanol, 298.15 K): 0.0171
solubility (mole fraction) (in ethanol, 303.15 K): 0.0211
solubility (mole fraction) (in ethanol, 308.15 K): 0.0265
solubility (mole fraction) (in ethanol, 313.15 K): 0.0327
solubility (mole fraction) (in ethanol, 318.15 K): 0.0402
solubility (mole fraction) (in ethanol, 323.15 K): 0.0486
solubility (mole fraction) (in ethyl acetate, 288.15 K): 0.00336
solubility (mole fraction) (in ethyl acetate, 293.15 K): 0.00459
solubility (mole fraction) (in ethyl acetate, 298.15 K): 0.00639
solubility (mole fraction) (in ethyl acetate, 303.15 K): 0.00835
solubility (mole fraction) (in ethyl acetate, 308.15 K): 0.0112
solubility (mole fraction) (in ethyl acetate, 313.15 K): 0.0147
solubility (mole fraction) (in ethyl acetate, 318.15 K): 0.0196
solubility (mole fraction) (in ethyl acetate, 323.15 K): 0.0251
solubility (mole fraction) (in isobutanol, 288.15 K): 0.00816
solubility (mole fraction) (in isobutanol, 293.15 K): 0.00984
solubility (mole fraction) (in isobutanol, 298.15 K): 0.0126
solubility (mole fraction) (in isobutanol, 303.15 K): 0.0162
solubility (mole fraction) (in isobutanol, 308.15 K): 0.0208
solubility (mole fraction) (in isobutanol, 313.15 K): 0.0273
solubility (mole fraction) (in isobutanol, 318.15 K): 0.0354
solubility (mole fraction) (in isobutanol, 323.15 K): 0.0454
solubility (mole fraction) (in methanol, 288.15 K): 0.0154
solubility (mole fraction) (in methanol, 293.15 K): 0.018
solubility (mole fraction) (in methanol, 298.15 K): 0.0225
solubility (mole fraction) (in methanol, 303.15 K): 0.027
solubility (mole fraction) (in methanol, 308.15 K): 0.0328
solubility (mole fraction) (in methanol, 313.15 K): 0.0402
solubility (mole fraction) (in methanol, 318.15 K): 0.0492
solubility (mole fraction) (in methanol, 323.15 K): 0.0597
solubility (mole fraction) (in n-propanol, 288.15 K): 0.00832
solubility (mole fraction) (in n-propanol, 293.15 K): 0.0113
solubility (mole fraction) (in n-propanol, 298.15 K): 0.0142
solubility (mole fraction) (in n-propanol, 303.15 K): 0.0179
solubility (mole fraction) (in n-propanol, 308.15 K): 0.0227
solubility (mole fraction) (in n-propanol, 313.15 K): 0.0301
solubility (mole fraction) (in n-propanol, 318.15 K): 0.0389
solubility (mole fraction) (in n-propanol, 323.15 K): 0.0502
